Measurements: PubChem BioAssay (NCI)
Values joined by “and” are separate entries in the source; they are usually repeats but may differ in a detail not shown here. Equal entries are not always repeated.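 1) Cells in 96-well plates. 2) Compound, 48 h, 5 concentrations. 3) Linear interpolation between surrounding doses. 4) Unreached endpoint = highest concentration. GI50 marks 50% less growth. TGI: total growth inhibition.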

What was measured:
Assay in all cases: NCI-60 cell line screen, 48 h
SK-MEL-5 melanoma = system: SK-MEL-5 melanoma
OVCAR-3 ovarian = system: OVCAR-3 ovarian
PC-3 prostate = system: PC-3 prostate
SNB-75 CNS = system: SNB-75 CNS
A498 renal = system: A498 renal
SNB-19 CNS = system: SNB-19 CNS
OVCAR-5 ovarian = system: OVCAR-5 ovarian
LOX IMVI melanoma = system: LOX IMVI melanoma
ACHN renal = system: ACHN renal
OVCAR-4 ovarian = system: OVCAR-4 ovarian

Row | Structure (SMILES) | GI50 (SK-MEL-5 melanoma) [µM] | TGI (SK-MEL-5 melanoma) | GI50 (OVCAR-3 ovarian) | TGI (OVCAR-3 ovarian) [µM] | GI50 (PC-3 prostate) | TGI (PC-3 prostate) [µM] | GI50 (SNB-75 CNS) [µM] | TGI (SNB-75 CNS) [µM] | GI50 (A498 renal) | TGI (A498 renal) | GI50 (SNB-19 CNS) [µM] | TGI (SNB-19 CNS) | GI50 (OVCAR-5 ovarian) | TGI (OVCAR-5 ovarian) [µM] | GI50 (LOX IMVI melanoma) [µM] | TGI (LOX IMVI melanoma) | GI50 (ACHN renal) [µM] | TGI (ACHN renal) | GI50 (OVCAR-4 ovarian) | TGI (OVCAR-4 ovarian) [µM]
1 | COc1cc(-n2cc(-c3ccc(Cl)c(Cl)c3)nc2SCc2ccccc2)cc(OC)c1OC | > 100 | > 100 µM | > 100 µM | > 100 | 38.9 µM | > 100 | > 100 | > 100 | > 100 µM | > 100 µM | > 100 | > 100 µM | > 100 µM | > 100 | > 100 | > 100 µM | > 100 | > 100 µM | > 100 µM | > 100
2 | C[C@@H]1CC[C@@H]2[C@@H]1[C@H](OC(=O)/C=C/c1ccccc1)[C@]1(c3ccccc3)C[C@@H](OC(=O)CO)[C@@]2(C)O1 | 13.4 | 26.2 µM | 13.3 µM | 27 | 3.67 µM | 18.9 | 11.6 | 37.9 | 0.189 µM | 0.585 µM | 20.2 | 55.9 µM | 15.5 µM | 34.5 | 13.9 | 27.2 µM | 0.179 | 0.597 µM | 12.3 µM | 27.3
3 | CC1(C)N=C(N)N=C(N)N1c1ccc(CCCCc2ccc(S(=O)(=O)F)cc2)cc1 | 0.574 | 13.4 µM | 3.88 µM | 16.4 | 0.094 µM | 23.5 | 2.16 | 20.2 | 3.81 µM | 87.6 µM | 2.58 | 19.4 µM | 2.62 µM | > 100 | 0.488 | 15 µM | 4.68 | > 100 µM | 8.23 µM | > 86.5
4 | CCc1c2c(nc3cc4c(cc13)OCO4)-c1cc3c(c(=O)n1C2)COC(=O)[C@]3(O)CC | – | 0.0648 µM and 0.143 µM | 0.476 µM and 1.87 µM | > 100 | 0.277 µM and 0.122 µM | > 100 | – | – | 0.0097 µM and 0.0397 µM | 0.428 µM and 0.834 µM | 0.0164 | 0.455 µM | 0.885 µM and 0.313 µM | 2.27 | 0.00197 | 0.122 µM and 0.52 µM | < 0.001 | 0.146 µM and 0.0376 µM | 0.323 µM and 1.27 µM | > 100
5 | CCOc1ccc(S(=O)(=O)/N=C2\C=C(SCC(=O)O)C(=O)c3ccccc32)cc1 | 1.72 | 3.1 µM | 1.88 µM | 12.2 | 2.92 µM | 13.1 | 2.5 | 4.96 | 21.6 µM | 37 µM | 3.42 | 12.1 µM | 5.5 µM | 25.1 | 2.31 | 10.2 µM | 6.8 | 20.2 µM | 2.16 µM | 6.31
6 | O=C(Nc1cccc(-n2ccc3c(NC(=O)c4ccccc4)nccc32)c1)c1cccc(C(F)(F)F)c1 | 0.0341 | 0.152 µM | 0.0205 µM | 0.0463 | 0.0434 µM | > 100 | – | – | 0.02 µM | 0.0772 µM | 0.0453 | > 100 µM | 0.239 µM | > 100 | 0.0838 | 2.78 µM | 0.0782 | 12.5 µM | 0.104 µM | > 67.7
7 | Cc1ccn2c3c(c(C(=O)O)c2c1)C(=O)c1ccccc1C3=O | 0.679 | 1.97 µM | 2.9 µM | > 70.3 | > 100 µM | > 100 | – | – | 5.01 µM | 40.5 µM | 4.24 | > 100 µM | 30.5 µM | > 100 | 4.36 | > 100 µM | > 96.4 | > 100 µM | 12.6 µM | > 100
8 | O=c1cc(-c2cccc(F)c2)[nH]c2cc3c(cc12)OCO3 | 0.0639 | – | 0.291 µM | – | – | > 89.5 | – | – | – | > 9.41 µM | 0.324 | 75 µM and > 45.3 µM | – | > 100 | 0.326 | 6.4 µM and > 54.4 µM | 0.432 | 75 µM and > 59.5 µM | – | > 68.1
9 | CC(=O)c1ccc(Nc2cc(-c3ccccc3)nc3c(O)cccc23)cc1 | 13 | 26.7 µM | > 100 µM | > 100 | 8.62 µM | > 100 | 17.9 | 50.5 | 25.3 µM | 71.7 µM | – | – | 54.5 µM | > 100 | 14.5 | > 100 µM | 20.5 | 74.1 µM | 18.2 µM | 64.7
10 | O=C1/C(=C/c2ccc(F)cc2)CCOc2ccc([N+](=O)[O-])cc21 | 1.84 | 3.6 µM | 2.33 µM | 5.61 | 0.306 µM | 1.64 | – | – | 17.4 µM | 35 µM | 4.26 | 16.2 µM | 2 µM | 4.62 | 35.9 | > 100 µM | 28 | 65.4 µM | 16.7 µM | 36.5
